Results on 38 molecules are retold here after ChEMBL document CHEMBL2401627, “Synthesis of some novel chalcones, flavanones and flavones and evaluation of their anti-inflammatory activity” (Eur J Med Chem, 2013).

The subject of data set [1] is Rattus norvegicus. Kind of data set: Antiinflammatory activity in Wistar rat assessed as inhibition of carrageenan-induced hind paw oedema at 20 mg/kg, po administered 30 mins before carrageenan challenge measured after 5 hrs by plethysmometer relative to control. It is filed as functional.
In data set [2] the test system is Rattus norvegicus. Description: Antiinflammatory activity in Wistar rat assessed as inhibition of carrageenan-induced hind paw oedema at 20 mg/kg, po administered 30 mins before carrageenan challenge measured after 3 hrs by plethysmometer relative to control. It is filed as functional.
Data set [3] concerns Rattus norvegicus. Description: Gastrointestinal toxicity in Wistar rat assessed as ulcerogenic index at 60 mg/kg, po after 6 hrs relative to control. It counts as organism-based. Also noted: dose 60 mg/kg, route oral. As to conditions: in vivo.
Data set [4] concerns RAW264.7. Description: Antiinflammatory activity in mouse RAW264.7 cells assessed as inhibition of LPS-induced TNFalpha production at 5 uM treated 30 mins before LPS challenge measured after 1 hr by ELISA relative to control. It counts as functional.
The subject of data set [5] is RAW264.7. Description: Antiinflammatory activity in mouse RAW264.7 cells assessed as inhibition of LPS-induced TNFalpha production at 10 uM treated 30 mins before LPS challenge measured after 2 hrs by ELISA relative to control. It is filed as functional.
The subject of data set [6] is RAW264.7. Description: Antiinflammatory activity in mouse RAW264.7 cells assessed as inhibition of LPS-induced TNFalpha production at 10 uM treated 30 mins before LPS challenge measured after 3 hrs by ELISA relative to control. It is filed as functional.
The target in data set [7] is T1, Prostaglandin G/H synthase 1 (Ovis aries, UniProt P05979).
T1 sequence (P05979 whole entry): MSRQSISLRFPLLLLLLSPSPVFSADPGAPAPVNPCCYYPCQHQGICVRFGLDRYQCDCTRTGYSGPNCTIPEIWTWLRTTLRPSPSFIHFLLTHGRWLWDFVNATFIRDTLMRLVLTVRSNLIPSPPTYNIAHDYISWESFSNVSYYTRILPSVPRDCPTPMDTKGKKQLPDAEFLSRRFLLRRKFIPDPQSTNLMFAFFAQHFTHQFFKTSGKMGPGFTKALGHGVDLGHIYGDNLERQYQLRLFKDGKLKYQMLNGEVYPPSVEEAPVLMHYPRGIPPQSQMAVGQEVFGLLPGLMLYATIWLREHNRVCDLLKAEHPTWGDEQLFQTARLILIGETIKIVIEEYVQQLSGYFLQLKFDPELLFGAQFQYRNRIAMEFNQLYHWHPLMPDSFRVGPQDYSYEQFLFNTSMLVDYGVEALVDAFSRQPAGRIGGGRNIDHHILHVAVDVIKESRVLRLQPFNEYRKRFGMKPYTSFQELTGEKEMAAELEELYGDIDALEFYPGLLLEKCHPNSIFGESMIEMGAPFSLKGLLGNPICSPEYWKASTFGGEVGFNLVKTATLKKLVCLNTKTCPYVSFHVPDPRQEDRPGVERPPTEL
Kind of data set: Inhibition of ovine COX1.

Data set [8] has as its system RAW264.7. Kind of data set: Antiinflammatory activity in mouse RAW264.7 cells assessed as inhibition of LPS-induced TNFalpha production at 10 uM treated 30 mins before LPS challenge measured after 1 hr by ELISA relative to control. It counts as functional.
The test system of data set [9] is RAW264.7. Description: Antiinflammatory activity in mouse RAW264.7 cells assessed as inhibition of LPS-induced TNFalpha production at 5 uM treated 30 mins before LPS challenge measured after 2 hrs by ELISA relative to control. It is filed as functional.
Data set [10] concerns RAW264.7. Kind of data set: Antiinflammatory activity in mouse RAW264.7 cells assessed as inhibition of LPS-induced TNFalpha production at 5 uM treated 30 mins before LPS challenge measured after 3 hrs by ELISA relative to control. It is filed as functional.

`COc1cc(C)c(Cl)c(C)c1C(=O)/C=C/c1cccc([N+](=O)[O-])c1`: the inhibition in vivo at 20 mg/kg is 22.2% in the data set on Rattus norvegicus [1] and 68.2% in the data set on Rattus norvegicus [2].
Consider `COc1ccc(C2CC(=O)c3c(cc(C)c(Cl)c3C)O2)cc1OC` (stereo not drawn), for which the inhibition in vivo at 20 mg/kg was 41.7% with Rattus norvegicus [1] and 48.5% with Rattus norvegicus [2].
On the same counts, the results for `Cc1cc2c(c(C)c1Cl)C(=O)CC(c1ccccc1O)O2` (stereo not drawn) are 75% and 58.8%.
On the same counts, the results for `COc1cc(C)c(Cl)c(C)c1C(=O)/C=C/c1ccccc1Cl` are 12.5% and 27.8%.
On the same counts, the results for `COc1ccc(-c2cc(=O)c3c(C)c(Cl)c(C)cc3o2)cc1OC` are 22.9% and 43.1%.
For the molecule `COc1cc(-c2cc(=O)c3c(C)c(Cl)c(C)cc3o2)cc(OC)c1OC`, the UI in the data set on Rattus norvegicus [3] came to 0 mm. The values for the inhibition in vivo at 20 mg/kg with Rattus norvegicus [1] and in the data set on Rattus norvegicus [2] were 73.3% and 68.4%, respectively.
For the molecule `Cc1cc2c(c(C)c1Cl)C(=O)CC(c1ccccc1)O2` (stereo not drawn), the results for the inhibition in vivo at 20 mg/kg in the data set with Rattus norvegicus [1] and in the data set on Rattus norvegicus [2] were 27.7% and 43.3%, respectively.
On the same counts, the results for `COc1cc(C)c(Cl)c(C)c1C(=O)/C=C/c1ccccc1` are 75% and 69.2%.
Take `Cc1cc(O)c(C(=O)/C=C/c2ccccc2)c(C)c1Cl`: the UI with Rattus norvegicus [3] worked out at 0.4 mm. In addition, the inhibition in vivo at 20 mg/kg worked out at 82% with Rattus norvegicus [1] and 70% with Rattus norvegicus [2].
Regarding `Cc1cc2c(c(C)c1Cl)C(=O)CC(c1ccccc1Cl)O2` (stereo not drawn), the inhibition in vivo at 20 mg/kg with Rattus norvegicus [1] was 56%; in the data set on Rattus norvegicus [2] it was 22.2%.
With `Cc1cc2oc(-c3ccc(Cl)cc3)cc(=O)c2c(C)c1Cl`, the results for the inhibition in vivo at 20 mg/kg in the data set with Rattus norvegicus [1] and in the data set with Rattus norvegicus [2] were 22.9% and 26.1%, respectively.
Consider `COc1ccc(/C=C/C(=O)c2c(OC)cc(C)c(Cl)c2C)cc1OC`, for which, in the data set with Rattus norvegicus [3], the UI was 0.16 mm. The inhibition in vivo at 20 mg/kg in the data set with Rattus norvegicus [1] worked out at 62%; with Rattus norvegicus [2] it was 81%.
The corresponding values for `COc1cc(/C=C/C(=O)c2c(OC)cc(C)c(Cl)c2C)cc(OC)c1OC` are 0.16 mm, 62.5% and 76.9%.
The corresponding values for `Cc1cc2c(c(C)c1Cl)C(=O)CC(c1ccc(N(C)C)cc1)O2` (stereo not drawn) are 0 mm, 81% and 82%.
Consider `Cc1cc(O)c(C(=O)/C=C/c2ccc(Cl)cc2)c(C)c1Cl`, for which the inhibition in vivo at 20 mg/kg in the data set on Rattus norvegicus [1] was 36%; in the data set on Rattus norvegicus [2], 41.6%.
`COc1cc(/C=C/C(=O)c2c(OC)cc(C)c(Cl)c2C)ccc1O`: the inhibition in vivo at 20 mg/kg in the data set with Rattus norvegicus [1] was determined as 25%; in the data set with Rattus norvegicus [2] it was 22.2%.
On the same counts, the results for `COc1ccc(-c2cc(=O)c3c(C)c(Cl)c(C)cc3o2)cc1` are 28.6% and 58%.
The corresponding values for `COc1cc(C2CC(=O)c3c(cc(C)c(Cl)c3C)O2)ccc1O` (stereo not drawn) are 66% and 44.4%.
The corresponding values for `Cc1cc2oc(-c3ccccc3Cl)cc(=O)c2c(C)c1Cl` are 57.1% and 36.8%.
As to `Cc1cc(O)c(C(=O)/C=C/c2ccccc2Cl)c(C)c1Cl`, the inhibition in vivo at 20 mg/kg amounted to 70% in the data set on Rattus norvegicus [1] and 33% in the data set with Rattus norvegicus [2].
On the same counts, the results for `COc1cc(C)c(Cl)c(C)c1C(=O)/C=C/c1ccc(N(C)C)cc1` are 18.8% and 22.2%.
On the same counts, the results for `Cc1cc2c(c(C)c1Cl)C(=O)CC(c1cccc([N+](=O)[O-])c1)O2` (stereo not drawn) are 51.4% and 53.6%.
On the same counts, the results for `COc1cc(C)c(Cl)c(C)c1C(=O)/C=C/c1ccccc1[N+](=O)[O-]` are 66.7% and 63.6%.
Take `COc1cc(/C=C/C(=O)c2c(O)cc(C)c(Cl)c2C)cc(OC)c1OC`: the UI in the data set on Rattus norvegicus [3] came to 0.4 mm. For the same molecule, the Activity is 49.42 pg/mL with RAW264.7 [4]; 53.77 pg/mL in the data set with RAW264.7 [5]; 88.83 pg/mL in the data set with RAW264.7 [6]; 34.99 pg/mL with RAW264.7 [8]; 79.77 pg/mL in the data set with RAW264.7 [9]; 104.78 pg/mL in the data set with RAW264.7 [10]. Also, the 50% inhibitory concentration (IC50) in [7] worked out at 87.5 µM. In addition, the figures for the inhibition in vivo at 20 mg/kg in the data set on Rattus norvegicus [1] and in the data set with Rattus norvegicus [2] were 90.6% and 91.7%, respectively.
In the case of `Cc1cc(O)c(C(=O)/C=C/c2cccc(O)c2)c(C)c1Cl`, the UI in the data set on Rattus norvegicus [3] is listed as 0.4 mm. For the same molecule, the inhibition in vivo at 20 mg/kg in the data set with Rattus norvegicus [1] was 71%; with Rattus norvegicus [2], 83%.
On the same counts, the results for `COc1ccc2c(c1)c(CC(=O)O)c(C)n2C(=O)c1ccc(Cl)cc1` [INDOMETHACIN] are 1.5 mm, 86% and 67%.
`COc1ccc(/C=C/C(=O)c2c(O)cc(C)c(Cl)c2C)cc1OC`: the UI in the data set on Rattus norvegicus [3] turned out to be 0.6 mm. Moreover, the inhibition in vivo at 20 mg/kg in the data set with Rattus norvegicus [1] stood at 82%; in the data set with Rattus norvegicus [2], 71%.
Take `COc1ccc(/C=C/C(=O)c2c(O)cc(C)c(Cl)c2C)cc1`: the inhibition in vivo at 20 mg/kg worked out at 55% in the data set on Rattus norvegicus [1] and 50% in the data set on Rattus norvegicus [2].
The corresponding values for `Cc1cc(O)c(C(=O)/C=C/c2ccccc2[N+](=O)[O-])c(C)c1Cl` are 14.3% and 26.3%.
On the same counts, the results for `COc1cc(C)c(Cl)c(C)c1C(=O)/C=C/c1ccc(Cl)cc1` are 12.5% and 22.2%.
On to `Cc1cc2c(c(C)c1Cl)C(=O)CC(c1ccc(Cl)cc1)O2` (stereo not drawn), for which the inhibition in vivo at 20 mg/kg in the data set on Rattus norvegicus [1] amounted to 70%; in the data set on Rattus norvegicus [2], 37.8%.
Take `Cc1cc2c(c(C)c1Cl)C(=O)CC(c1cccc(O)c1)O2` (stereo not drawn): the inhibition in vivo at 20 mg/kg in the data set on Rattus norvegicus [1] came out at 44.4%; in the data set on Rattus norvegicus [2], 46.4%.
`COc1cc(C2CC(=O)c3c(cc(C)c(Cl)c3C)O2)cc(OC)c1OC` (stereo not drawn): the inhibition in vivo at 20 mg/kg with Rattus norvegicus [1] stood at 44.4%; in the data set with Rattus norvegicus [2], 48.5%.
On the same counts, the results for `COc1ccc(C2CC(=O)c3c(cc(C)c(Cl)c3C)O2)cc1` (stereo not drawn) are 70% and 51.1%.
The corresponding values for `COc1cc(C)c(Cl)c(C)c1C(=O)/C=C/c1ccccc1O` are 50% and 33.3%.
The corresponding values for `COc1ccc(/C=C/C(=O)c2c(OC)cc(C)c(Cl)c2C)cc1` are 12.5% and 16.7%.
As to `Cc1cc2oc(-c3ccccc3)cc(=O)c2c(C)c1Cl`, the inhibition in vivo at 20 mg/kg amounted to 16.2% in the data set on Rattus norvegicus [1] and 26.3% in the data set with Rattus norvegicus [2].
For the molecule `COc1cc(C)c(Cl)c(C)c1C(=O)/C=C/c1cccc(O)c1`, the UI in the data set on Rattus norvegicus [3] was 0.33 mm. The inhibition in vivo at 20 mg/kg in the data set with Rattus norvegicus [1] was 75%; in the data set with Rattus norvegicus [2] it was 80.8%.
